Legend:
Type in all cases: cell-based
[1] = biological target: EGFR L858R (Homo sapiens, UniProt P00533, L858R); experiment: pEGFR Y1068 ELISA assay, NIH3T3/EGFR_L858R cells; settings: 3T3 cell line, 2 hrs compound treatment; read-out: pEGFRY1068 ELISA3T3 L858R IC50;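 note: sandwich ELISA of phospho-EGFR Tyr1068 in lysates of stably transfected NIH/3T3 pools after 2 h compound exposure at 37 °C, 11-point threefold dilution series run in duplicate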
[2] = biological target: EGFR L858R+T790M (Homo sapiens, UniProt P00533, L858R/T790M); experiment: pEGFR Y1068 ELISA assay, NIH3T3/EGFR_L858R+T790M cells; settings: 3T3 cell line, 2 hrs compound treatment; read-out: pEGFRY1068 ELISA3T3T790M—L858R IC50;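 note: sandwich ELISA of EGFR phosphorylated at Tyr1068 in lysates of stably transfected NIH/3T3 cells, 11-point threefold dilution series run in duplicate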
EGFR L858R+T790M, sequence (P00533 25-1210 T790M/L858R): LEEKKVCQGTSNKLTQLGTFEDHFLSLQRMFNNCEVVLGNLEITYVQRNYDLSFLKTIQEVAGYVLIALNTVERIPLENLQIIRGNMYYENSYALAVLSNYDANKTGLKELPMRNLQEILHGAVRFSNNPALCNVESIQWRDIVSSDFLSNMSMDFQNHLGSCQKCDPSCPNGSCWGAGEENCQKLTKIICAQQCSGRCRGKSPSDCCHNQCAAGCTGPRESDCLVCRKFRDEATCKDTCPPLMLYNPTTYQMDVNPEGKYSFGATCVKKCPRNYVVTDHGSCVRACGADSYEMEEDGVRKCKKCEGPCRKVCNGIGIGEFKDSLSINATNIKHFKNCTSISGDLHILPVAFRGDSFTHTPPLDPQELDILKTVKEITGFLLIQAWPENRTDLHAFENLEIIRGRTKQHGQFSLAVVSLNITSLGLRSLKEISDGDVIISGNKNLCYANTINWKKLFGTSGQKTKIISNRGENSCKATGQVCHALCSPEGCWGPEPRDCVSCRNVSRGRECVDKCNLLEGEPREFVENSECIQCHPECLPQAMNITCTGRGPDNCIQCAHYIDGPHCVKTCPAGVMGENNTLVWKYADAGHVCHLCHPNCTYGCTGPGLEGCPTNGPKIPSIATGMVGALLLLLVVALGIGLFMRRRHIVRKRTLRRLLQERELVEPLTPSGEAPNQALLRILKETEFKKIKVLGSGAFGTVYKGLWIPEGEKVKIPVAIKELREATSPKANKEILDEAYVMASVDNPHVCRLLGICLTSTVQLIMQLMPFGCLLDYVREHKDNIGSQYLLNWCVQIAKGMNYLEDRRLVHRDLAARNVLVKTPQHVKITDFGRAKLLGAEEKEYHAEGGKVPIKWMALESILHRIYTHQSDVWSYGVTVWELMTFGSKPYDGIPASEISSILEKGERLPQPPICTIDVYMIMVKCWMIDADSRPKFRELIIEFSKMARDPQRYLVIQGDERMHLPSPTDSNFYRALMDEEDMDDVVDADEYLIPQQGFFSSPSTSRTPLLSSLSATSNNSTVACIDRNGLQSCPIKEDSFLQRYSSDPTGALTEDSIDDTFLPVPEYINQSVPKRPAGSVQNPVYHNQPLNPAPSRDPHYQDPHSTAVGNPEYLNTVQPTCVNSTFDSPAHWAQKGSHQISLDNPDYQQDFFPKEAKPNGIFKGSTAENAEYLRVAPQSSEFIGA

[3] = biological target: T1, EGFR wildtype, endogenous (Homo sapiens, UniProt P00533); experiment: pEGFR Y1068 ELISA assay, A549 cells; settings: full serum media, stimulated 10 min with EGF (40 ng/mL), read-out: pEGFRY1068 ELISAA549 IC50;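 note: sandwich ELISA of phospho-EGFR Tyr1068 in cell lysates, cells exposed to compound for 2 h before EGF stimulation, 11-point threefold dilution series run in duplicate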
T1 construct: A549 (EGFR wildtype, endogenous); host or cells: A549
T1 sequence (P00533 25-1210): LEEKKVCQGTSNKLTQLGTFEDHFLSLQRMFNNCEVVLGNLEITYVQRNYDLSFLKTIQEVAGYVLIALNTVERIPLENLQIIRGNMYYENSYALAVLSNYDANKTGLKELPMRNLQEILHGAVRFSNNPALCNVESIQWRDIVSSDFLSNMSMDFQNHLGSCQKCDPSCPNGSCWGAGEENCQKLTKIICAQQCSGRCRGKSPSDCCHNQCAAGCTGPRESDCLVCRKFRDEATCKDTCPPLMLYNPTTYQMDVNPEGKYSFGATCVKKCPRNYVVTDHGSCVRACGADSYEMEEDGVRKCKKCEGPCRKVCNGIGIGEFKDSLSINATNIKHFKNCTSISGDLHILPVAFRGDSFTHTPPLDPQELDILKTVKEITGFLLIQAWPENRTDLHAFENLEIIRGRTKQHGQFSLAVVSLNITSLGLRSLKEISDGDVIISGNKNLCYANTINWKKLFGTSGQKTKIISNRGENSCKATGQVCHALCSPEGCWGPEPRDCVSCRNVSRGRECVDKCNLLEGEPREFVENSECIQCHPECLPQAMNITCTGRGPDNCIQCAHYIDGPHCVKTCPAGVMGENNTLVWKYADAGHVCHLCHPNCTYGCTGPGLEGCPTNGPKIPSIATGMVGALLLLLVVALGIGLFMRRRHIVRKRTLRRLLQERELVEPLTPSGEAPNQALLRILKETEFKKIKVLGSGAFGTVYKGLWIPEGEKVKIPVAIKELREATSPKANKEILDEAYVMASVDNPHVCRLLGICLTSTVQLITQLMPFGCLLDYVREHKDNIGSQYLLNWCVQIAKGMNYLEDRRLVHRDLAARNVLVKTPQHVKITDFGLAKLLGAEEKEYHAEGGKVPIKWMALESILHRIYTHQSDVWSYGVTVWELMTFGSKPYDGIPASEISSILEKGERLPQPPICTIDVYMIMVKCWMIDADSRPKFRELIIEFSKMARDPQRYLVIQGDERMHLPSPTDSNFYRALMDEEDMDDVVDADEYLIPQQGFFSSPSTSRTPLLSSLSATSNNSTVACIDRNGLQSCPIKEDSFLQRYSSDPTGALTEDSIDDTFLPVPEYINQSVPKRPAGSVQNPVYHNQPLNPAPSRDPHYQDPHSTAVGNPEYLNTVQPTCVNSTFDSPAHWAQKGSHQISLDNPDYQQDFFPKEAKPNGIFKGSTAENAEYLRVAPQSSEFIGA

[4] = biological target: EGFR E746-A750 deletion (Homo sapiens, UniProt P00533, DEL746-750); experiment: pEGFR Y1068 ELISA assay, NIH3T3/EGFR_E746-A750 deletion cells; settings: 3T3 Del cells, 2 hrs compound treatment; read-out: ELISA7E 3T3 Del IC50;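 note: sandwich ELISA on cell lysates detecting phospho-EGFR at Tyr1068, compounds run as 11-point threefold dilution series in duplicate, IC50 from inhibition of this phosphorylation signal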
EGFR E746-A750 deletion, sequence (P00533 with tags, fused parts or gaps DEL746-750): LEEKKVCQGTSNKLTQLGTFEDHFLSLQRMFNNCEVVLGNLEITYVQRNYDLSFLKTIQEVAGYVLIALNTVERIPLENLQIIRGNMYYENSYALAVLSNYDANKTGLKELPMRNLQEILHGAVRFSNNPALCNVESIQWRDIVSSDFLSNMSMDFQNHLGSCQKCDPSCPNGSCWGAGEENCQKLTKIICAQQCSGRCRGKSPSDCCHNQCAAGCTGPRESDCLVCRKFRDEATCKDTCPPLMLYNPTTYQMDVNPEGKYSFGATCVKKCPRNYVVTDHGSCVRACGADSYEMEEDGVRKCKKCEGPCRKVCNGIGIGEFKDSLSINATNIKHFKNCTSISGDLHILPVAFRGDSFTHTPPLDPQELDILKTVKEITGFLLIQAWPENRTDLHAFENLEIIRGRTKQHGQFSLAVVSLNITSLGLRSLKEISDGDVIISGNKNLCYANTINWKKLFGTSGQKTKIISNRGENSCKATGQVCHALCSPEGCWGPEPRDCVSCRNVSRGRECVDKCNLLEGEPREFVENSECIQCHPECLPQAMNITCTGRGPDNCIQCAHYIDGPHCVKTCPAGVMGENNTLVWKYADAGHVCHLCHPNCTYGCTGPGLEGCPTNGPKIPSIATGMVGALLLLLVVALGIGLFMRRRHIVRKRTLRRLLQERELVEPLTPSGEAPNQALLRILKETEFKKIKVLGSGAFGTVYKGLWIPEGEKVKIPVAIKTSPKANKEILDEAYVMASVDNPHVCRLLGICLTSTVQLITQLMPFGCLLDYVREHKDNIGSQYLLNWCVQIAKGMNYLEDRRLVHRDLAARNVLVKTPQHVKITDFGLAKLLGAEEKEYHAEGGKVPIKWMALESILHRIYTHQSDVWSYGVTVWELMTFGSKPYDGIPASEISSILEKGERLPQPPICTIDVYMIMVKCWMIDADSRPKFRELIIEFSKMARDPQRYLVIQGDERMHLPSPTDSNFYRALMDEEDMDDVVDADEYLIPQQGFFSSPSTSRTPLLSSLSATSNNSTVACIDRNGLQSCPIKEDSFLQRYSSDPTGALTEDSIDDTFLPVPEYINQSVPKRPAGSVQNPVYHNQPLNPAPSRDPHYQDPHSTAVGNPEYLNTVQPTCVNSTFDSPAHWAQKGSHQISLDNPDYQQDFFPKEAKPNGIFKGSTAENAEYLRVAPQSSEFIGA

EGFR L858R, sequence (P00533 25-1210 L858R): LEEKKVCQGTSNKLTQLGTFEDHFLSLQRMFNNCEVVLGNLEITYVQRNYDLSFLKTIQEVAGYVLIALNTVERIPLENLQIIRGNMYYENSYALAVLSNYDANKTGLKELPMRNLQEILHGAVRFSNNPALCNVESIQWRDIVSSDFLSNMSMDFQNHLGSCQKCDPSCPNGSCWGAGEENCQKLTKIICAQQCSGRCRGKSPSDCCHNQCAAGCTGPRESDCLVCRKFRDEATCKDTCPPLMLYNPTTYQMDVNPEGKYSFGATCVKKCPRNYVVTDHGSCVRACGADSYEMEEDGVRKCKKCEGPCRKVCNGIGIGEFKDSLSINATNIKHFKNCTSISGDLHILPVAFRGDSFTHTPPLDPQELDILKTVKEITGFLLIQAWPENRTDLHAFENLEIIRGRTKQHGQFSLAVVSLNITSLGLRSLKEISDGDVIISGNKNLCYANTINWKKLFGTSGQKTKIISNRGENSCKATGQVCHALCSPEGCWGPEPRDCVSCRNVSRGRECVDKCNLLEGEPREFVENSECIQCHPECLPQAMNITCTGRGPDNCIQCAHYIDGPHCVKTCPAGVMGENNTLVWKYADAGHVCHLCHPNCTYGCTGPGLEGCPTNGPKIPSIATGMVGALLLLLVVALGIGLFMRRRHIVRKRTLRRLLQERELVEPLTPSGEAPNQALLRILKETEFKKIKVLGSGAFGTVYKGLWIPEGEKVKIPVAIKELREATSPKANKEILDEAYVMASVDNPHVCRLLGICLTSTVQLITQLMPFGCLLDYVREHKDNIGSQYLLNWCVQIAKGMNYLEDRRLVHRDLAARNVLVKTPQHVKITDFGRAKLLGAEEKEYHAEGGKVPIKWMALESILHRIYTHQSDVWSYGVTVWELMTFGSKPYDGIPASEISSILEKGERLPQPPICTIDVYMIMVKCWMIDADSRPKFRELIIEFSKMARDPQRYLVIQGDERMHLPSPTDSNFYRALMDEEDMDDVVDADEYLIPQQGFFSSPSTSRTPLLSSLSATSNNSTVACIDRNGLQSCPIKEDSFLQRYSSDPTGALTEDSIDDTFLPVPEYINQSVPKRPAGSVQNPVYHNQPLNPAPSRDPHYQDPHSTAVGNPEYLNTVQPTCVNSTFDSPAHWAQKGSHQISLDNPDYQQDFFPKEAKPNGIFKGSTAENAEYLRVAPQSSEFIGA

| SMILES | IC50 [1] [nM] | IC50 [2] [nM] | IC50 [3] [nM] | IC50 [4] [nM] |
| --- | --- | --- | --- | --- |
| C=CC(=O)N1C[C@@H](COc2nc(Nc3cnn(C)c3)nc3[nH]ccc23)[C@H](C)C1 (single isomer, unassigned) [Example 3] | 733 | 57 | 9060 | – |
| C=CC(=O)N1C[C@H](COc2nc(Nc3cnn(C)c3)nc3[nH]ccc23)[C@@H](C)C1 (single isomer, unassigned) [Example 4] | 547 | 77 | > 10000 | – |
| C=CC(=O)N1C[C@@H](CC)[C@H](COc2nc(Nc3cnn(C)c3)nc3[nH]ccc23)C1 (single isomer, unassigned) [Example 15] | 834 | 182 | > 10000 | – |
| C=CC(=O)N[C@H]1C[C@@H](Oc2nc(Nc3cnn(C)c3)nc3[nH]cnc23)C1 (single isomer, unassigned) [Example 55] | – | – | – | > 10000 |
| C=CC(=O)N[C@H]1C[C@H](Oc2nc(Nc3cnn(C)c3)nc3[nH]cnc23)C1 (single isomer, unassigned) [Example 56] | – | – | – | > 10000 |
| C=CC(=O)Nc1cccc(Oc2nc(Nc3ccn(C)n3)nc3[nH]cc(F)c23)c1 [Example 1, N-[3-({5-fluoro-2-[(1-methyl-1H-pyrazol-3-yl)amino]-7H-pyrrolo[2,3-d]pyrimidin-4-yl}oxy)phenyl]prop-2-enamide] | 585 | 33 | > 10000 | – |
| C=CC(=O)N[C@H]1C[C@H](Nc2nc(Nc3cnn(C)c3)nc3[nH]ccc23)C1 [Example 6, N-[trans-3-({2-[(1-methyl-1H-pyrazol-4-yl)amino]-7H-pyrrolo[2,3-d]pyrimidin-4-yl}amino)cyclobutyl]prop-2-enamide] | > 10000 | > 10000 | > 10000 | – |
| C=CC(=O)Nc1cccc(Oc2nc(Nc3cnn(C4CCN(C)C4)c3)nc3[nH]cnc23)c1 (stereo not shown) [Example 7, N-{3-[(2-{[1-(1-methylpyrrolidin-3-yl)-1H-pyrazol-4-yl]amino}-9H-purin-6-yl)oxy]phenyl}prop-2-enamide] | 1120 | 396 | > 10000 | 1130 |
| C=CC(=O)N[C@H]1C[C@H](Oc2nc(Nc3cnn(C)c3)nc3[nH]cc(C#N)c23)C1 [Example 14] | > 10000 | 1800 | > 10000 | – |
| C=CC(=O)N1CC(COc2nc(Nc3cnn(C)c3)nc3[nH]ccc23)C1 [Example 16] | 2510 | 308 | > 10000 | – |
| C=CC(=O)N1CCO[C@@H](COc2nc(Nc3cnn(C)c3)nc3[nH]ccc23)C1 [Example 17] | 2030 | 104 | > 10000 | – |
| C=CC(=O)N1CCO[C@H](COc2nc(Nc3cnn(C)c3)nc3[nH]ccc23)C1 [Example 18] | 1500 | 79 | > 10000 | – |
| C=CC(=O)N1CC[C@@H](Oc2nc(Nc3cnn(C)c3)nc3[nH]cc(C#N)c23)C1 [Example 20] | > 10000 | 1820 | > 10000 | 8400 |
| C=CC(=O)Nc1cccc(Oc2nc(Nc3cnn(C)c3C)nc3[nH]ccc23)c1 [Example 24] | 275 | 20 | 6740 | – |
| C=CC(=O)Nc1cccc(Oc2nc(Nc3cnn(CC(C)(C)O)c3)nc3[nH]ccc23)c1 [Example 25] | 1030 | 69 | > 10000 | – |
| C=CC(=O)Nc1cccc(Oc2nc(Nc3cc(C)nn3C)nc3[nH]ccc23)c1 [Example 26] | 177 | 21 | 6760 | 135 |
| C=CC(=O)N1CCc2c(Oc3nc(Nc4ccn(C)n4)nc4[nH]ccc34)cccc21 [Example 29] | – | – | – | 116 |
| C=CC(=O)Nc1cccc(Oc2nc(Nc3cn(C)nc3C)nc3[nH]ccc23)c1 [Example 30] | 91 | 9 | 2390 | 25 |

| SMILES | IC50 [1] [nM] | IC50 [2] [nM] | IC50 [3] [nM] | IC50 [4] [nM] |
| --- | --- | --- | --- | --- |
| C=CC(=O)Nc1cccc(Oc2nc(Nc3cnn(C4CCN(C)CC4)c3)nc3[nH]ccc23)c1 [Example 33] | 120 | 20 | 2210 | 27 |
| C=CC(=O)N1CCc2c(Oc3nc(Nc4cnn(C)c4)nc4[nH]cc(C#N)c34)cccc21 [Example 37] | 67 | 41 | > 10000 | – |
| C=CC(=O)N1CCc2c(Oc3nc(Nc4cnn(C)c4)nc4[nH]ccc34)cccc21 [Example 38] | 90 | 8 | 5900 | – |
| C=CC(=O)Nc1cccc(Oc2nc(Nc3cnn(C4CCOC4)c3)nc3[nH]ccc23)c1 (stereo not shown) [Example 39] | 190 | 15 | 2800 | 100 |
| C=CC(=O)Nc1cccc(COc2nc(Nc3cnn(C)c3)nc3[nH]ccc23)c1 [Example 43] | > 10000 | 5340 | > 10000 | – |
| C=CS(=O)(=O)N1CCc2c(Oc3nc(Nc4cnn(C)c4)nc4[nH]ccc34)cccc21 [Example 44] | 552 | 25 | 3560 | 90 |
| C=CC(=O)Nc1cccc(Oc2nc(Nc3cc(COC)nn3C)nc3[nH]ccc23)c1 [Example 45] | 700 | 84 | > 10000 | – |
| C=CC(=O)Nc1cccc(Oc2nc(Nc3cc(C4CC4)nn3C)nc3[nH]ccc23)c1 [Example 46] | 495 | 80 | > 10000 | – |
| C=CC(=O)Nc1cccc(Oc2nc(Nc3cc(CC)nn3C)nc3[nH]ccc23)c1 [Example 47] | 752 | 50 | > 10000 | 317 |
| C=CC(=O)Nc1cc(F)cc(Oc2nc(Nc3ccn(C)n3)nc3[nH]ccc23)c1 [Example 49] | 97 | 7 | 2020 | 22 |
| C=CC(=O)Nc1cccc(Oc2nc(Nc3ccn(CCN(C)C)n3)nc3[nH]ccc23)c1 [Example 51] | 431 | 35 | > 10000 | 137 |
| C=CC(=O)Nc1cccc(Oc2nc(Nc3cnn(CCN(C)C)c3)nc3[nH]cnc23)c1 [Example 53] | 1140 | 355 | > 10000 | 663 |
| C=CC(=O)Nc1cccc(Oc2nc(Nc3cnn(C)c3)nc3[nH]cnc23)c1 [Example 54] | 672 | 168 | > 10000 | 192 |
| C=CC(=O)Nc1cccc(Oc2nc(Nc3cnn(CC(=O)N(C)C)c3)nc3[nH]ccc23)c1 [Example 58] | > 10000 | 681 | > 10000 | – |
| C=CC(=O)Nc1cccc(Oc2nc(Nc3ccn(C)n3)nc3[nH]ccc23)c1F [Example 59] | 78 | 7 | > 7890 | 36 |
| C=CC(=O)Nc1cccc(Oc2nc(Nc3cnn(C)c3)nc3[nH]cc(-c4cnn(C)c4)c23)c1 [Example 60] | 23 | 16 | 1860 | 12 |
| C=CC(=O)N(C)C1CC(Oc2nc(Nc3cnn(C)c3)nc3[nH]cc(C#N)c23)C1 (stereo not shown) [Example 61] | 1700 | 189 | > 10000 | 581 |
| C=CC(=O)N1C[C@@H]2[C@H](C1)[C@H]2Oc1nc(Nc2cnn(C)c2)nc2[nH]cc(Cl)c12 [Example 66] | 120 | 9 | > 10000 | 309 |
